Measurements reported in patent US20210395794A1, “Antimicrobial Susceptibility Assay and Kit” (The University of Manchester, priority 2018, published 2021).

Key:
E. coli in UTI samples = assay: Flow cytometric antibiotic sensitivity of positive UTI urine samples (Firsway clinic) in Terrific Broth with diS-C3(5); assay type: cell-based; set-up: key: R—resistant; S—sensitive; settings: antibiotic at nominal 3x MIC
Description: Initial studies used a Sony SH-800 instrument, but all studies reported here used an Intellicyt® iQue screener PLUS. This instrument is based in significant measure on developments by Sklar and colleagues (e.g. (Edwards et al. 2009; Sklar et al. 2007; Tegos et al. 2014)), and uses segmented flow (Skeggs 1957) to sample from 96- or 384-well U- or V-bottom plates prior to their analysis. The iQue Plus contains three excitation sources (405 nm, 488 nm, 640 nm) and 7 fixed filter detectors (with a midpoint/range in nm of 445/45, 530/30, 572/28, 585/40, 615/24, 675/30, 780/60, giving 13 fluorescence channels) whose outputs are stored as both ‘height’ and area, using the FCS3.0 data file standard (Seamer et al. 1997). Forward and side scatter are obtained from the 488 nm excitation source. Detection channels are referred to by the laser used (405 nm violet VL, 488 nm blue BL, and 640 nm red RL) and the detector number in order of possible detectors with a longer wavelength. Thus RL1, as used for detecting di-S-C3(5), implies the red laser and the 675/30 detector. Data are collected from all channels, using a dynamic range of 7 logs. Many parameters may be used to vary the precise performance of the instrument. Those we found material to provide the best reproducibility and to minimise carryover, and their selected values, are as follows: Automatic prime—60 secs (in Qsol buffer); Pre-plate shake—15 s and 1500 rpm; Sip time—2 s (actual sample uptake); Additional sip time—0.5 s (the gap between sips); Pump speed—29 rpm (1.5 μL·s^−1 sample uptake); Plate model—U-bottom well plate (for 96 well plates); Mid plate cleanup—After every well (4 washes; 0.5 s each in Qsol buffer); Inter-well shake—1500 rpm; after 6 wells, 4 sec in Qsol buffer; Flush and Clean—30 sec with Decon and Clean buffers followed by 60 sec with deionised water. The Forecyt™ software supplied with the instrument may be used to gate and display all the analyses post hoc. It, and the FlowJo software, were used in the preparation of the cytograms shown. Where used, di-S-C3(5) was present at a final concentration of 3 μM; its analysis used excitation at 640 nm and detection at 675±15 nm, the fluorescence channel being referred to as RL1. For DNA analyses, cells were fixed by injection into ice-cold ethanol (final concentration 70%), washed twice by centrifugation in 0.1 M-Tris/HCl buffer, pH 7.4, before resuspension in the same buffer containing mithramycin (50 μg mL^−1) and ethidium bromide (25 μg mL^−1), MgCl2, (25 mM) and NaCl (100 mM) (Boye et al. 1983). […] All the solutions and media used were filtered through 0.2 μm filter.
Samples were taken at various times during the day, kept at 4° C., delivered to the Manchester laboratory by taxi, plated out (LB agar containing as appropriate the stated antibiotics at 3 times normal MIC) to assess microbial numbers and antibiotic sensitivity, the remaining sample kept again at 4° C., and analysed flow cytometrically within 18 h. For flow cytometric assessment, cells were diluted into 37° C. Terrific Broth containing 3 μM diS-C3(5) plus any appropriate antibiotic, and assayed as above. For other experiments (not shown) cells were filtered (0.45 μm) and diluted as appropriate into warmed terrific broth.
Finally, we wished to determine whether this method, as developed in laboratory cultures, could be applied to candidate UTI specimens ‘as received’ in a doctor's surgery.

E. coli MG1655 = assay: Flow cytometric particle counting of proliferation with antibiotic in 20 mins (FIG. 6C); assay type: cell-based; settings: sensitive strain E. coli MG1655, Terrific Broth
Description: Initial studies used a Sony SH-800 instrument, but all studies reported here used an Intellicyt® iQue screener PLUS. This instrument is based in significant measure on developments by Sklar and colleagues (e.g. (Edwards et al. 2009; Sklar et al. 2007; Tegos et al. 2014)), and uses segmented flow (Skeggs 1957) to sample from 96- or 384-well U- or V-bottom plates prior to their analysis. The iQue Plus contains three excitation sources (405 nm, 488 nm, 640 nm) and 7 fixed filter detectors (with a midpoint/range in nm of 445/45, 530/30, 572/28, 585/40, 615/24, 675/30, 780/60, giving 13 fluorescence channels) whose outputs are stored as both ‘height’ and area, using the FCS3.0 data file standard (Seamer et al. 1997). Forward and side scatter are obtained from the 488 nm excitation source. Detection channels are referred to by the laser used (405 nm violet VL, 488 nm blue BL, and 640 nm red RL) and the detector number in order of possible detectors with a longer wavelength. Thus RL1, as used for detecting di-S-C3(5), implies the red laser and the 675/30 detector. Data are collected from all channels, using a dynamic range of 7 logs. Many parameters may be used to vary the precise performance of the instrument. Those we found material to provide the best reproducibility and to minimise carryover, and their selected values, are as follows: Automatic prime—60 secs (in Qsol buffer); Pre-plate shake—15 s and 1500 rpm; Sip time—2 s (actual sample uptake); Additional sip time—0.5 s (the gap between sips); Pump speed—29 rpm (1.5 μL·s^−1 sample uptake); Plate model—U-bottom well plate (for 96 well plates); Mid plate cleanup—After every well (4 washes; 0.5 s each in Qsol buffer); Inter-well shake—1500 rpm; after 6 wells, 4 sec in Qsol buffer; Flush and Clean—30 sec with Decon and Clean buffers followed by 60 sec with deionised water. […] Where used, di-S-C3(5) was present at a final concentration of 3 μM; its analysis used excitation at 640 nm and detection at 675±15 nm, the fluorescence channel being referred to as RL1. […]

[1] = UTI sample May 25, 2018 (first listed)
[2] = UTI sample May 25, 2018 (second listed)

Row | SMILES | Antibiotic sensitivity (E. coli in UTI samples; UTI sample Jul. 16, 2018) | Antibiotic sensitivity (E. coli in UTI samples; UTI sample Jul. 18, 2018) | Antibiotic sensitivity (E. coli in UTI samples; UTI sample Jul. 20, 2018) | Antibiotic sensitivity (E. coli in UTI samples; UTI sample Jun. 6, 2018) | Antibiotic sensitivity (E. coli in UTI samples; [1]) | Antibiotic sensitivity (E. coli in UTI samples; [2]) | Effect on cell proliferation (E. coli MG1655)
1 | CC1(C)S[C@@H]2[C@H](NC(=O)[C@H](N)c3ccccc3)C(=O)N2[C@H]1C(=O)O [Ampicillin] | R | R | S | R | R | S | work effectively
2 | O=C(O)c1cn(C2CC2)c2cc(N3CCNCC3)c(F)cc2c1=O [Ciprofloxacin] |  |  |  |  |  |  | work effectively
3 | COc1cc(Cc2cnc(N)nc2N)cc(OC)c1OC [Trimethoprim] | S | S | R | S | R | S | work effectively
4 | O=C1CN(/N=C/c2ccc([N+](=O)[O-])o2)C(=O)N1 [Nitrofurantoin] | S | R | S | S | S | S | 
